Measurements as given in patent EP4574147A1, “COMPOSITION FOR PREVENTING, AMELIORATING, OR TREATING CANCER COMPRISING STEPPOGENIN AS ACTIVE INGREDIENT” (Kyungpook National University Industry-Academic Cooperation …, priority 2022, dated 2024).

How the values were obtained:
EA.hy 926 cell = assay: Spheroid sprouting assay; assay type: cell-based, human; settings: VEGF treatment, 2 days (FIG. 5d)
Procedure: EA.hy 926 cell suspension (5×10^3 cells) was distributed on the lid of a 100 mm dish using a hanging-drop method and maintained for 24 hours. The next day, spheroids were harvested and mixed with Methocel stock solution containing 20% FBS. Next, spheroids containing Methocel solution were seeded in 24-well plates. After incubation at 37°C for 30 minutes, VEGF or steppogenin was added to the polymerized Methocel solution and incubated for 2 days.

HEK293T cells [1] = assay: Lactate dehydrogenase cytotoxicity assay; assay type: cell-based, human; settings: LDH release, hypoxia 24 h, compared to vehicle treatment (FIG. 3b)
Procedure: HEK293T cells were seeded at 2 × 10^3 cells/well in 96-well plates and cultured at 37 °C for 24 h. Next, the cells were treated with various concentrations of steppogenin for 24 h under hypoxia conditions. Lactate dehydrogenase (LDH) release values were evaluated using the Cytotoxicity LDH Assay Kit-WST (DOJINDO) according to the manufacturer's instructions. Cytotoxicity was measured using a microplate reader (Infinite M200 Pro; TECAN) at 490 nm.

Notch1, and NICD = assay: Western blot analysis of VEGF-induced Notch1 and NICD protein levels; assay type: cell-based, human; settings: HUVECs (FIG. 5a)
Procedure: (§1) Proteins were extracted from cultured cells using RIPA lysis buffer (Thermo Scientific, Waltham, MA, USA). The protein extracts were separated using SDS-PAGE and transferred to nitrocellulose membranes (Whatman, Maidstone, England). The membranes were blocked with 5% skim milk in Tris-buffered saline containing 0.1% Tween-20 for 1 hour at room temperature. After blocking, the membranes were incubated with specific primary antibodies overnight at 4°C, and then incubated with secondary antibodies for 1 hour at room temperature. Proteins were detected using the Enhanced Chemiluminescence Kit (Bio-Rad, Hercules, CA, USA) according to the manufacturer's instructions. Primary antibodies against HIF-1α (BD Biosciences, San Diego, CA, USA), VEGF (Santa Cruz Biotechnology, Santa Cruz, CA, USA), CXCR4 (Abcam, Cambridge, UK), CA9 (Abcam), DLL4 (Santa Cruz Biotechnology), NOTCH1 (Thermo Scientific), and β-actin (Santa Cruz Biotechnology) were used.

HEK293T cells [2] = assay: Cell counting kit-8 assay (cell viability under hypoxic conditions); assay type: cell-based, human; settings: hypoxia, compared to vehicle treatment (FIG. 3a)
Procedure: HEK293T cells were seeded at a density of 5 × 10^3 cells/well in 96-well plates and cultured at 37°C for 24 h. After 24 hours, the natural compounds were diluted in the medium according to the concentration and replaced. Cell viability was determined after exposure to hypoxic conditions for 24 h using the Cell Counting Kit-8 (DOJINDO, Rockville, MD, USA) according to the manufacturer's instructions, and measured using a microplate reader (Infinite M200 Pro; TECAN, Mannedorf, Switzerland) at 450 nm.
To test the inhibitory activity of 70 natural compounds on HIF-1 and DLL4 activity, their cytotoxic effects on immortalized normal cells were first tested under hypoxia conditions. In particular, under these conditions, HEK293T cells were treated with compounds at various concentrations (0.1 to 10 µM).

[3] = test system: HIF-1α target genes VEGF, GLUT1, CXCR4, and CA9; assay: Real-time qRT-PCR of HIF-1α target gene mRNA; assay type: cell-based; settings: hypoxia (FIG. 4c)
Procedure: Total RNA was isolated using TRIzol Reagent (Invitrogen). The isolated RNA was used to synthesize cDNA using ReverTra Ace qPCR RT Master Mix (TOYOBO, Osaka, Japan) according to the manufacturer's protocol. The synthesized cDNA was mixed with gene-specific primers. Amplification real-time polymerase chain reaction (PCR) was performed using SYBR Green PCR Master Mix (Applied Biosystems, CA, USA). The heat cycle proceeded as follows: 50 °C for 2 min, 95 °C for 10 min, 40 cycles of denaturation at 95 °C for 15 s, and annealing at 60 °C for 1 min. Mean cycle threshold values were used to calculate mRNA expression with normalization to β-actin as an internal control.

[4] = test system: Lewis lung carcinoma (LLC)-allografted tumor models; assay: Lewis lung carcinoma allograft tumor model with immunohistochemical analysis; assay type: in vivo, C57BL/6J mice
Procedure: Six-week-old adult male C57BL/6J mice (SLC, Japan) were used and housed in a specific pathogen-free facility with an individual ventilation system at Kyungpook National University.
To manufacture Lewis lung carcinoma (LLC)-allografted tumor models, LLC cell suspensions (5 × 10^5 cells in 200 µL of serum-free culture medium) were subcutaneously transplanted into the dorsal flank area of 6-week-old male C57BL/6J mice. After inoculating the LLC cells, the mice were administered 17-AAG (25 mg/kg) or steppogenin (2 mg/kg) via intraperitoneal injection at various time points. Next, tumor volumes were measured according to the following formula: V = 0.5 × A × B^2, where A and B represent the longest and shortest dimensions, respectively. Finally, the mice were anesthetized and tissues were collected for further analysis.
For immunohistochemical analysis, collected tumor or tissue samples were fixed in 4% paraformaldehyde and embedded in tissue-freezing medium (Leica, Wetzlar, Germany). Frozen blocks were cut into 10 µm sample sections, blocked with 3% BSA in PBST (0.3% Triton X-100 in PBS), and incubated overnight at 4 °C with appropriate primary antibodies. Primary antibodies were as follows: anti-CD34 (Boster Bio, CA, USA), anti-DLL4 (R&D Systems, MN, USA), anti-pimonidazole (Hypoxyprobe-1, HPI, MA, USA), anti-CD3 (Abcam), anti-CD4 (Invitrogen), and anti-CD8 (Invitrogen). After several washes, the samples were incubated with recommended fluorophore-tagged secondary antibodies for 1 hour at room temperature. Next, cell nuclei were stained using Antifade Mounting Medium containing DAPI (Vector Laboratories, Burlingame, CA). Immunofluorescence images were acquired using a Zeiss confocal microscope (Carl Zeiss, Germany). Next, pimonidazole hydrochloride (60 mg/kg; Hypoxyprobe-1, HPI) was injected intravenously through the tail vein of mice and anesthetized 90 minutes later. Finally, tumor tissues were collected for further analysis.
To determine whether steppogenin induces vascular normalization, T-cell infiltration in tumor tissues was examined.

[5] = test system: HIF-1α target genes VEGF, GLUT1, CXCR4, and CA9; assay: Western blot analysis of HIF-1α target gene protein levels; assay type: cell-based; settings: hypoxia, compared to vehicle control group (FIG. 4d)
Procedure: as §1

DLL4 = assay: Western blot analysis of VEGF-induced DLL4 protein level in endothelial cells; assay type: cell-based, human
Procedure: as §1

[6] = immunohistochemical staining, compared to control group, 17-AAG 25 mg/kg, steppogenin 2 mg/kg (FIG. 6c)
[7] = tumor tissues, steppogenin 2 mg/kg (FIG. 6e)

SMILES: O=C1C[C@@H](c2ccc(O)cc2O)Oc2cc(O)cc(O)c21 [steppogenin, (2S)-2-(2,4-dihydroxyphenyl)-5,7-dihydroxy-2,3-dihydrochromen-4-one]
- germination ability (number of germinations) in 3D EC spheroid cultures (EA.hy 926 cell): significantly inhibited
- cytotoxicity (HEK293T cells [1]): not altered
- VEGF-induced NICD protein levels (Notch1, and NICD): dose-dependently reduced
- VEGF-induced Notch1 protein levels (Notch1, and NICD): dose-dependently reduced
- dose-dependent cell viability (HEK293T cells [2]): not altered
- mRNA expression of CA9 [3]: inhibited
- mRNA expression of CXCR4 [3]: inhibited
- mRNA expression of GLUT1 [3]: inhibited
- mRNA expression of VEGF [3]: inhibited
- average body weights between the groups during the administration period ([4]; 17-AAG 25 mg/kg, steppogenin 2 mg/kg, intraperitoneal (FIG. 6b)): no significant difference
- tumor growth ([4]; 17-AAG 25 mg/kg, steppogenin 2 mg/kg, intraperitoneal, days 7, 9, 11, 13, 15 (FIG. 6a)): significantly inhibited
- HIF-1α expression level in tumors [4, 6]: significantly reduced
- hypoxic region in tumors [4, 6]: significantly reduced
- microvessel density analyzed using CD34 antibody ([4]; steppogenin 2 mg/kg, compared to control tissue (FIG. 6d)): significantly reduced
- infiltration of CD3+ T cells [4, 7]: significantly increased
- ratio of CD8+ to CD4+ T cells in tumors [4, 7]: decreased
- protein levels of CA9 [5]: suppressed
- protein levels of CXCR4 [5]: suppressed
- protein levels of VEGF [5]: suppressed
- DLL4 protein level induced by VEGF (DLL4; ECs, VEGF treatment, screening (FIG. 2c)): significantly suppressed
- VEGF-induced DLL4 protein levels (DLL4; HUVECs (FIG. 5a)): dose-dependently reduced
